In brackets after ≈: the same amount, converted by molar mass.
Legend:
Bcl-2-like protein 1 [1] = molecular target: T1, Bcl-2-like protein 1 (Homo sapiens, UniProt Q07817); assay: Inhibition of interaction between GST-tagged Bcl-xl and Bak by fluorescence polarization assay
Bcl-2-like protein 1 [2] = molecular target: T1, Bcl-2-like protein 1; assay: Inhibition of interaction between Bcl-xl and Bak by surface plasmon resonance assay
A549 = assay: Cytotoxicity against human A549 cells; format: functional, cell-based
Bcl-2-like protein 1 [3] = molecular target: T1, Bcl-2-like protein 1; assay: Inhibition of interaction between GST-tagged Bcl-xl and Bak by surface plasmon resonance assay
[4] = Chemical stability assessed as half life by HPLC; format: physicochemical
HepG2 = assay: Cytotoxicity against human HepG2 cells; format: functional
Staphylococcus aureus = assay: Antibacterial activity against methicillin-resistant Staphylococcus aureus STA MU50; format: functional

T1 sequence (Q07817 whole entry): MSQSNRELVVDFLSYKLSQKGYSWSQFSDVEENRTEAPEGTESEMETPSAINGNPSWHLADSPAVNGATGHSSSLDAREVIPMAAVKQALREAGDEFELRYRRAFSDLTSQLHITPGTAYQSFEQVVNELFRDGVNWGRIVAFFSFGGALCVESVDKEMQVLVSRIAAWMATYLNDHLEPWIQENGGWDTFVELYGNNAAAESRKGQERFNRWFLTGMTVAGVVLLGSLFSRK

SMILES	Emax (Bcl-2-like protein 1 [1]) [%]	IC50 (Bcl-2-like protein 1 [1]; read-out: IC50) [µM]	Kd (Bcl-2-like protein 1 [2])	IC50 (Bcl-2-like protein 1 [1])	half-life [4] [h]	IC50 (A549) [µM]	Kd (Bcl-2-like protein 1 [3]) [µM]	Kd (Bcl-2-like protein 1 [2]; read-out: Kd) [µM]	GI50 (HepG2) [µM]	MIC (Staphylococcus aureus) [µM]
CC1=C(O)C(=O)C2=C(C1=O)C(O)C(=O)[C@@H](C)C[C@H](C)C/C(C)=C/[C@@H](C)CC[C@H]1O[C@@H]2[C@H](C)[C@@H](O)[C@H]1C (some centres undefined)	35	230	Not Active			25	10800			
CC1=C2O[C@]3(O)C=C2C(=C(O)C1=O)[C@@H]1O[C@H](CC[C@H](C)/C=C(\C)C[C@@H](C)C[C@@H]3C)[C@H](C)[C@H](O)[C@H]1C [KENDOMYCIN]	70	12.3			< 2	16	528	1830	< 0.1	3.9 (≈ 1.9 µg/mL)
Cc1cc2c(C(C)C)c(O)c(O)c(C=O)c2c(O)c1-c1c(C)cc2c(C(C)C)c(O)c(O)c(C=O)c2c1O [GOSSYPOL]							1.71	338		

Continued, in another order:

Emax (Bcl-2-like protein 1 [1]) [%]	IC50 (Bcl-2-like protein 1 [1]; read-out: IC50) [µM]	Kd (Bcl-2-like protein 1 [2])	IC50 (Bcl-2-like protein 1 [1])	half-life [4] [h]	SMILES	IC50 (A549) [µM]	Kd (Bcl-2-like protein 1 [3]) [µM]	Kd (Bcl-2-like protein 1 [2]; read-out: Kd) [µM]	GI50 (HepG2) [µM]	MIC (Staphylococcus aureus) [µM]
			Not Active		CC1=C2O[C@]34OC5(CCCCC5)O[C@@H]3C2=C(C(=O)C1=O)[C@@H]1O[C@H](CC[C@H](C)/C=C(\C)C[C@@H](C)C[C@@H]4C)[C@H](C)[C@H](O)[C@H]1C	24				
66	5			< 23	CC1=C2O[C@]34OC5(CCN(C)CC5)O[C@@H]3C2=C(C(=O)C1=O)[C@@H]1O[C@H](CC[C@H](C)/C=C(\C)C[C@@H](C)C[C@@H]4C)[C@H](C)[C@H](O)[C@H]1C	14	377	399		
			Not Active		CO[C@@]12C=C3C(=C(C)C(=O)C(O)=C3[C@@H]3O[C@H](CC[C@H](C)/C=C(\C)C[C@@H](C)C[C@@H]1C)[C@H](C)[C@H](O)[C@H]3C)O2	9				
22	9.5			< 39	CC1=C2O[C@]34OC(C)(C)O[C@@H]3C2=C(C(=O)C1=O)[C@@H]1O[C@H](CC[C@H](C)/C=C(\C)C[C@@H](C)C[C@@H]4C)[C@H](C)[C@H](O)[C@H]1C	14				

From ChEMBL document CHEMBL1143433, “Interaction of kendomycin and semi-synthetic analogues with the anti-apoptotic protein Bcl-xl” (Bioorg Med Chem Lett, 2008)
